From US20250049938A1, “ANTIBODY-DRUG CONJUGATE AND USE THEREOF” (priority 2021, published 2025) come the findings set out here.

Starred links: 1 amine or outer side, 2 acyl side, 3 side chain; linkers in the order of their positions; H or OH if unused. Non-standard residues stand in square brackets, D forms with d. Residues, ends and D or L forms follow the SMILES beside them. *: point of attachment. Exatecan = CC[C@@]1(O)C(=O)OCc2c1cc1n(c2=O)Cc2c-1nc1cc(F)c(C)c3c1c2[C@@H](N*)CC3; Hexanoyl(6-maleimido) = O=C1C=CC(=O)N1CCCCCC(=O)*; NHCH2OCH2CO = O=C(COCN[*:1])[*:2]

In this assay the test system is human colon cancer SW620 cells. The assay can be described thus: In vitro killing of human colon cancer SW620 cells (CellTiter-Glo). The format is cell-based. The conditions noted are these: FIG. 2B; 2-fold dilutions from 400 nM, 9 concentrations; culturing 4 days and 6 days. How it is done:
Human colon cancer SW620 cells in the logarithmic growth phase were digested with pancreatin, and subsequently resuspended in a corresponding culture medium, with the density adjusted to be 2×10^4 cells/mL. The cells were seeded into a 96-well microplate at 100 μL/well, allowing for a density of 2×10^3 cells/well, and 200 μL of the culture medium was added to each of the rest wells. After culturing for 48 h at 37° C., 5% CO2, the supernatant was pipetted from the cell culture plate. The linker-drugs (04-Dxd, 07-Dxd, 08-Dxd, and 09-Dxd), HER3 ADCs (HER3-ADC04, HER3-ADC07, HER3-ADC08, and HER3-ADC09), and a monoclonal antibody control were diluted in a 2-fold gradient with the culture medium, starting from the initial concentration of 400 nM, to obtain a total of 9 concentration gradients. The diluted samples were added at 100 μL/well. After further culturing for 4 days and 6 days, color development was carried out. The cell plate was taken out and equilibrated for 15-20 min at room temperature, and subsequently 100 μL of CellTiter-Glo® Luminescent Cell Viability assay buffer (purchased from Promega) was added. The plate was shaken for 2 min on a shaker at 200 rpm, kept for 18 min in the dark, and read using an M5 microplate reader.
followed by plotting through four-parameter fitting, with the logarithm of the concentration as the abscissa and the killing rate as the ordinate.
On the technique in general: Cellular ATP, detected with luciferase, serves as a proxy for viable cell number.

On to `CC[C@@]1(O)C(=O)OCc2c1cc1n(c2=O)Cc2c-1nc1cc(F)c(C)c3c1c2[C@@H](NC(=O)COCNC(=O)CNC(=O)[C@H](Cc1ccccc1)NC(=O)CNC(=O)[C@H](CO)NC(=O)[C@H](CO)NC(=O)[C@H](C)NC(=O)[C@@H](NC(=O)CCCCCN1C(=O)C=CC1=O)C(C)C)CC3` [09-Dxd] ({Hexanoyl(6-maleimido)}-VASSGFG[NHCH2OCH2CO]-Exatecan), for which the “in vitro killing effect of linker-Dxd drugs on SW620 cells” value was “significantly better killing effect than 04-Dxd”.
`CC[C@@]1(O)C(=O)OCc2c1cc1n(c2=O)Cc2c-1nc1cc(F)c(C)c3c1c2[C@@H](NC(=O)COCNC(=O)CNC(=O)[C@H](Cc1ccccc1)NC(=O)CNC(=O)[C@H](C)NC(=O)[C@@H](NC(=O)CCCCCN1C(=O)C=CC1=O)C(C)C)CC3` [07-Dxd] ({Hexanoyl(6-maleimido)}-VAGFG[NHCH2OCH2CO]-Exatecan): the “in vitro killing effect of linker-Dxd drugs on SW620 cells” value is listed as “significantly better killing effect than 04-Dxd”.
The same measure for `CC[C@@]1(O)C(=O)OCc2c1cc1n(c2=O)Cc2c-1nc1cc(F)c(C)c3c1c2[C@@H](NC(=O)COCNC(=O)CNC(=O)[C@H](Cc1ccccc1)NC(=O)CNC(=O)CNC(=O)CCCCCN1C(=O)C=CC1=O)CC3` [04-Dxd, reference compound] ({Hexanoyl(6-maleimido)}-GGFG[NHCH2OCH2CO]-Exatecan): “killing effect”; for `CC[C@@]1(O)C(=O)OCc2c1cc1n(c2=O)Cc2c-1nc1cc(F)c(C)c3c1c2[C@@H](NC(=O)COCNC(=O)CNC(=O)[C@H](Cc1ccccc1)NC(=O)CNC(=O)[C@H](CO)NC(=O)[C@H](C)NC(=O)[C@@H](NC(=O)CCCCCN1C(=O)C=CC1=O)C(C)C)CC3` [08-Dxd] ({Hexanoyl(6-maleimido)}-VASGFG[NHCH2OCH2CO]-Exatecan): “significantly better killing effect than 04-Dxd”.
